Laboratory results as given in patent publication US6426355B1, “Heterocyclic carboxamide-containing thiourea inhibitors of herpes viruses containing phenylenediamine group” (American Home Products, priority 1998, dated 2002).
In brackets after ≈: the same amount, converted by molar mass.

Assays:
[1] = tested on: HCMV recombinant mutant virus (RV145); assay: HCMV microtiter plate assay (beta-glucuronidase reporter); format: cell-based, Human Cytomegalovirus; conditions: for IC50 (ug/ml) HCMV: HCMV in human foreskin fibroblasts; for IC50: Human betaherpesvirus 5, Fibroblast, read-out: IC50 (ug/ml) HCMV
Source text: Ninety-six well plate cultures of human foreskin fibroblasts are infected in the presence of inhibitor compound with a HCMV recombinant mutant virus whose genome contains the prokaryotic beta-glucuronidase gene (Jefferson, R. A., S. M. Burgess, and D. Hirsh. 1986. Beta-glucuronidase from Escherichia coli as a gene fusion marker. Proc. Natl. Acad. Sci. USA 83:8447-8451) whose expression is controlled by a viral promoter. An example of such a virus is RV145 (Jones, T. R., V. P. Muzithras, and Y. Gluzman. 1991. Replacement mutagenesis of the human cytomegalovirus genome: US10 and US11 gene products are nonessential. J. Virol. 65:5860-5872). Since it is under the control of a viral promoter, beta-glucuronidase expression is an indirect indicator of growth and replication of HCMV in this assay. At 96 hours post-infection, the infected cell lysates are prepared (using 50 mM sodium phosphate [pH7.0] containing 0.1% Triton X-100 and 0.1% sarkosyl) and assayed for beta-glucuronidase activity using a substrate for the enzyme which when cleaved yields either a product which can be measured colorimetrically in a spectrophotometer or fluorescently in a microfluorimeter. Examples of such substrates are p-nitrophenyl-beta-D-glucuronide and methylumbelliferylglucuronide, respectively. The presence of an antiviral compound is indicated by the reduced expression of the HCMV genome resident beta-glucuronidase gene, compared to the absence of inhibitor. […] Data from this assay generated using varying amounts of inhibitor compound is also used to estimate the IC50 of an inhibitor compound.

HSV-1 = assay: HSV Antiviral (ELISA) assay; format: cell-based; conditions: for IC50 (ug/ml) HSV: HSV-1 in Vero cells; for IC50: Human alphaherpesvirus 1, HSV-1 in Vero cells, read-out: IC50 (ug/ml) HSV
Experimental: Vero cells (ATCC #CCL-81) are plated on 96-well tissue culture plates at 3.5×10^4 cells per 100 μl tissue culture DMEM (Dulbecco's modified Eagle media) supplemented with 2% fetal bovine serum (FBS) in each well. After overnight incubation @ 37° C. (in 5% CO2) and 30 minutes prior to infection with HSV-1 (multiplicity of infection equal to 0.006), cells are either untreated, or treated with test compound (multiple concentrations) or reference standard drug control. After approximately 24 hours post-infection incubation @ 37° C. (in 5% CO2), cells are fixed for ELISA assay. The primary antibody is murine anti-HSV glycoprotein D monoclonal primary antibody and the secondary antibody is goat anti-mouse IgG linked to β-galactosidase. Thus the extent of viral replication is determined by assessing β-galactosidase activity by quantifying the generation of the 4-methyl umbelliferone fluorescent cleavage product after addition of the methyl umbelliferyl-β-D-galactoside (Sigma #M1633) substrate on a microfluorimeter (365 nm for excitation and 450 nm for emission). Antiviral activity (IC50) of the test compound is determined by comparing the flourescence obtained in absence of compound to that obtained in the presence of compound.

SMILES | IC50 (ug/ml) HCMV [1] [µg/mL] | IC50 (ug/ml) HSV (HSV-1) [µg/mL] | IC50 [1] [µg/mL] | IC50 (HSV-1) [µg/mL]
O=C(Nc1ccc(NC(=S)NCCOc2ccc(Br)cc2)cc1)c1ccco1 [Example 697] | 0.04 (≈ 0.0869 µM) | 7 (≈ 15.2 µM) | – | –
O=C(Nc1ccc(NC(=S)NCCc2ccc([N+](=O)[O-])cc2)cc1)c1csnn1 [Example 722] | 0.015 (≈ 0.035 µM) | >10 | – | –
COC(=O)c1cccc(NC(=S)Nc2ccc(NC(=O)c3ccccc3F)cc2)c1 [Example 1000, 3-{3-[4-(2-Fluoro-benzoylamino)-phenyl]-thioureido}-benzoic acid methyl ester] | – | – | 0.39 (≈ 0.921 µM) | > 10
O=C(Nc1ccc(NC(=S)NCCc2ccc(Cl)c(Cl)c2)cc1)c1ccco1 [Example 718] | 0.02 (≈ 0.046 µM) | 6 (≈ 13.8 µM) | – | –
O=C(Nc1ccc(NC(=S)Nc2cc(Cl)cc(Cl)c2)cc1)c1cocn1 [Example 702] | 0.01 (≈ 0.0246 µM) | 4 (≈ 9.82 µM) | – | –
O=C(Nc1ccc(NC(=S)NCc2ccc(F)cc2)cc1)c1csnn1 [Example 741] | 0.02 (≈ 0.0516 µM) | >10 | – | –
O=C(Nc1ccc(NC(=S)Nc2cc(C(F)(F)F)cc(C(F)(F)F)c2)cc1)c1cocn1 [Example 715] | 0.03 (≈ 0.0632 µM) | >10 | – | –
O=C(Nc1ccc(NC(=S)NCCc2cccc(C(F)(F)F)c2)cc1)c1csnn1 [Example 708] | 0.005 (≈ 0.0111 µM) | >10 | – | –
O=C(Nc1ccc(NC(=S)NCc2cc(C(F)(F)F)ccc2F)cc1)c1ccco1 [Example 670] | 0.02 (≈ 0.0457 µM) | >10 | – | –
O=C(Nc1ccc(NC(=S)NCCC(c2ccccc2)c2ccccc2)cc1)c1csnn1 [Example 686] | 0.007 (≈ 0.0148 µM) | >10 | – | –
O=C(Nc1ccc(NC(=S)NCCc2cc(F)cc(F)c2)cc1)c1csnn1 [Example 720] | 0.01 (≈ 0.0238 µM) | >10 | – | –
O=C(Nc1ccc(NC(=S)NCc2ccc(F)c(F)c2)cc1)c1ccco1 [Example 675] | 0.05 (≈ 0.129 µM) | >10 | – | –
Cc1cc(C)cc(CNC(=S)Nc2ccc(NC(=O)c3csnn3)cc2)c1 [Example 691] | 0.008 (≈ 0.0201 µM) | >10 | – | –
O=C(Nc1ccc(NC(=S)NCCSc2ccc(Cl)c(Cl)c2)cc1)c1csnn1 [Example 710] | 0.006 (≈ 0.0124 µM) | >10 | – | –
O=C(Nc1ccc(NC(=S)NCCc2ccccc2F)cc1)c1csnn1 [Example 684] | 0.005 (≈ 0.0125 µM) | 10 (≈ 24.9 µM) | – | –
O=C(Nc1ccc(NC(=S)Nc2ccccc2Cl)cc1)c1ccccc1F [Example 998, N-{4-[3-(2-Chloro-phenyl)-thioureido]-phenyl}-2-fluoro-benzamide] | – | – | 0.016 (≈ 0.04 µM) | > 10
O=C(Nc1ccc(NC(=S)Nc2ccc(Br)cc2)cc1)c1csnn1 [Example 739] | 0.02 (≈ 0.046 µM) | >10 | – | –
O=C(Nc1ccc(NC(=S)NCCc2ccc(C(F)(F)F)cc2)cc1)c1csnn1 [Example 717] | 0.003 (≈ 0.00664 µM) | >10 | – | –
O=C(Nc1ccc(NC(=S)NCCc2cccc(Br)c2)cc1)c1csnn1 [Example 770] | 0.006 (≈ 0.013 µM) | >10 | – | –
O=C(Nc1ccc(NC(=S)NCc2ccc(Br)cc2)cc1)c1csnn1 [Example 743] | 0.09 (≈ 0.201 µM) | >10 | – | –
O=C(Nc1ccc(NC(=S)Nc2ccc(Cl)c(C(F)(F)F)c2)cc1)c1cocn1 [Example 714] | 0.02 (≈ 0.0454 µM) | >10 | – | –

SMILES | IC50 (ug/ml) HCMV [1] [µg/mL] | IC50 (ug/ml) HSV (HSV-1) [µg/mL] | IC50 [1] [µg/mL] | IC50 (HSV-1) [µg/mL]
COc1cc(OC)c(NC(=S)Nc2ccc(NC(=O)c3cnccn3)cc2)cc1Cl [Example 144] | 10 (≈ 22.5 µM) | 7 (≈ 15.8 µM) | – | –
O=C(Nc1ccc(NC(=S)NCCSc2cc(C(F)(F)F)ccc2F)cc1)c1csnn1 [Example 711] | 0.004 (≈ 0.00798 µM) | >10 | – | –
O=C(Nc1ccc(NC(=S)NCCOc2cccc(Cl)c2)cc1)c1csnn1 [Example 668] | 0.009 (≈ 0.0207 µM) | >10 | – | –
O=C(Nc1ccc(NC(=S)NCCOc2ccc(I)cc2)cc1)c1csnn1 [Example 694] | 0.04 (≈ 0.0761 µM) | 10 (≈ 19 µM) | – | –
COc1ccccc1CCNC(=S)Nc1ccc(NC(=O)c2csnn2)cc1 [Example 651] | 0.03 (≈ 0.0725 µM) | >10 | – | –
O=C(Nc1ccc(NC(=S)Nc2cc(C(F)(F)F)cc(C(F)(F)F)c2)cc1)c1cscn1 [Example 701] | 0.008 (≈ 0.0163 µM) | >10 | – | –
O=C(Nc1ccc(NC(=S)NCCSc2cccc(Br)c2)cc1)c1csnn1 [Example 678] | 0.005 (≈ 0.0101 µM) | >10 | – | –
O=C(Nc1ccc(NC(=S)Nc2ccc(Cl)c(Cl)c2)cc1)c1cocn1 [Example 699] | 0.016 (≈ 0.0393 µM) | >10 | – | –
O=C(Nc1ccc(NC(=S)NCCOc2cccc(Cl)c2)cc1)c1ccco1 [Example 667] | 0.03 (≈ 0.0721 µM) | 8 (≈ 19.2 µM) | – | –
CCc1ccc(CCNC(=S)Nc2ccc(NC(=O)c3csnn3)cc2)cc1 [Example 713] | 0.009 (≈ 0.0219 µM) | >10 | – | –
COc1ccccc1CNC(=S)Nc1ccc(NC(=O)c2csnn2)cc1 [Example 650] | 0.05 (≈ 0.125 µM) | >10 | – | –
NC(=O)c1cccc(NC(=S)Nc2ccc(NC(=O)c3ccccc3F)cc2)c1 [Example 1002, N-[4-[[[[3-(Aminocarbonyl)phenyl]-amino]thioxomethyl]amino]phenyl]-2-fluoro-benzamide] | – | – | 0.07 (≈ 0.171 µM) | > 10
CC(Cc1ccccc1)NC(=S)Nc1ccc(NC(=O)c2csnn2)cc1 (stereo not drawn) [Example 723] | 0.03 (≈ 0.0755 µM) | >10 | – | –
CC(C)(C)c1ccc(CNC(=S)Nc2ccc(NC(=O)c3cscn3)cc2)cc1 [Example 747] | 0.002 (≈ 0.00471 µM) | >10 | – | –
COc1ccc(CCNC(=S)Nc2ccc(NC(=O)c3csnn3)cc2)cc1Br [Example 681] | 0.02 (≈ 0.0406 µM) | >10 | – | –
O=C(Nc1ccc(NC(=S)NCCOc2cccc(I)c2)cc1)c1csnn1 [Example 750] | 0.01 (≈ 0.019 µM) | >10 | – | –
CN(C)c1cc(CCNC(=S)Nc2ccc(NC(=O)c3csnn3)cc2)cc(C(F)(F)F)c1 [Example 674] | 0.006 (≈ 0.0121 µM) | >10 | – | –
O=C(Nc1ccc(NC(=S)NCc2cc(C(F)(F)F)ccc2F)cc1)c1cscn1 [Example 746] | 0.005 (≈ 0.011 µM) | >10 | – | –
O=C(Nc1ccc(NC(=S)NCCc2cccc(I)c2)cc1)c1csnn1 [Example 768] | 0.005 (≈ 0.00982 µM) | >10 | – | –
O=C(Nc1ccc(NC(=S)NCCSc2cccc(Br)c2)cc1)c1ccco1 [Example 679] | 0.01 (≈ 0.021 µM) | 10 (≈ 21 µM) | – | –
O=C(Nc1ccc(NC(=S)NCc2cc(C(F)(F)F)ccc2F)cc1)c1csnn1 [Example 671] | 0.005 (≈ 0.011 µM) | >10 | – | –
